pIC50: −log10 of the molar value. ≈ marks a conversion by molar mass, not a printed value. Read-outs that look alike come from different tables or passages of the source.
Assays:
fungal (fACC2) ACC2 = fungal (fACC2) ACC2 (UniProt Q00955); settings: read-out: fACC2 IC50; fungal ACC2, ADP-Glo
C. albicans ATCC 90028 = test: Anti-Fungal (Candida) Activity Assay, broth microtiter MIC; format: cell-based; settings: read-out: MIC C. albicans ATCC 90028
Outline: (§1)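 Following CLSI M27-A3 broth microdilution, direct colony suspensions in RPMI 1640+MOPS were challenged with compounds. MICs were read visually against the growth control after 48 h.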

[1] = system: C. parapsilosis ATCC 22019; test: as above; format: cell-based; settings: Lodderomyces parapsilosis, read-out: MIC C. parapsilosis ATCC 22019
Outline: as §1

C. krusei ATCC 6258 = test: as above; format: cell-based; settings: Pichia kudriavzevii, read-out: MIC C. krusei ATCC 6258
Outline: as §1

human (hACC2) ACC2 = human (hACC2) ACC2 (Homo sapiens, UniProt O00763); test: In vitro Acetyl-CoA Carboxylase (ACC) inhibition assay (ADP-Glo), hACC2; format: biochemical
Protocol: The detailed procedure is as follows. […] 10 μL ADP glo reagent was added. […] 20 μL kinase detection reagent was added.
“NA” stands for “not assayed.”

[2] = ATCC90028, 3 replicates, MIC recorded at 48 h
[3] = ATCC22019, 3 replicates, MIC recorded at 48 h
[4] = ATCC6258, 3 replicates, MIC recorded at 48 h

fungal (fACC2) ACC2, sequence (Q00955 whole entry): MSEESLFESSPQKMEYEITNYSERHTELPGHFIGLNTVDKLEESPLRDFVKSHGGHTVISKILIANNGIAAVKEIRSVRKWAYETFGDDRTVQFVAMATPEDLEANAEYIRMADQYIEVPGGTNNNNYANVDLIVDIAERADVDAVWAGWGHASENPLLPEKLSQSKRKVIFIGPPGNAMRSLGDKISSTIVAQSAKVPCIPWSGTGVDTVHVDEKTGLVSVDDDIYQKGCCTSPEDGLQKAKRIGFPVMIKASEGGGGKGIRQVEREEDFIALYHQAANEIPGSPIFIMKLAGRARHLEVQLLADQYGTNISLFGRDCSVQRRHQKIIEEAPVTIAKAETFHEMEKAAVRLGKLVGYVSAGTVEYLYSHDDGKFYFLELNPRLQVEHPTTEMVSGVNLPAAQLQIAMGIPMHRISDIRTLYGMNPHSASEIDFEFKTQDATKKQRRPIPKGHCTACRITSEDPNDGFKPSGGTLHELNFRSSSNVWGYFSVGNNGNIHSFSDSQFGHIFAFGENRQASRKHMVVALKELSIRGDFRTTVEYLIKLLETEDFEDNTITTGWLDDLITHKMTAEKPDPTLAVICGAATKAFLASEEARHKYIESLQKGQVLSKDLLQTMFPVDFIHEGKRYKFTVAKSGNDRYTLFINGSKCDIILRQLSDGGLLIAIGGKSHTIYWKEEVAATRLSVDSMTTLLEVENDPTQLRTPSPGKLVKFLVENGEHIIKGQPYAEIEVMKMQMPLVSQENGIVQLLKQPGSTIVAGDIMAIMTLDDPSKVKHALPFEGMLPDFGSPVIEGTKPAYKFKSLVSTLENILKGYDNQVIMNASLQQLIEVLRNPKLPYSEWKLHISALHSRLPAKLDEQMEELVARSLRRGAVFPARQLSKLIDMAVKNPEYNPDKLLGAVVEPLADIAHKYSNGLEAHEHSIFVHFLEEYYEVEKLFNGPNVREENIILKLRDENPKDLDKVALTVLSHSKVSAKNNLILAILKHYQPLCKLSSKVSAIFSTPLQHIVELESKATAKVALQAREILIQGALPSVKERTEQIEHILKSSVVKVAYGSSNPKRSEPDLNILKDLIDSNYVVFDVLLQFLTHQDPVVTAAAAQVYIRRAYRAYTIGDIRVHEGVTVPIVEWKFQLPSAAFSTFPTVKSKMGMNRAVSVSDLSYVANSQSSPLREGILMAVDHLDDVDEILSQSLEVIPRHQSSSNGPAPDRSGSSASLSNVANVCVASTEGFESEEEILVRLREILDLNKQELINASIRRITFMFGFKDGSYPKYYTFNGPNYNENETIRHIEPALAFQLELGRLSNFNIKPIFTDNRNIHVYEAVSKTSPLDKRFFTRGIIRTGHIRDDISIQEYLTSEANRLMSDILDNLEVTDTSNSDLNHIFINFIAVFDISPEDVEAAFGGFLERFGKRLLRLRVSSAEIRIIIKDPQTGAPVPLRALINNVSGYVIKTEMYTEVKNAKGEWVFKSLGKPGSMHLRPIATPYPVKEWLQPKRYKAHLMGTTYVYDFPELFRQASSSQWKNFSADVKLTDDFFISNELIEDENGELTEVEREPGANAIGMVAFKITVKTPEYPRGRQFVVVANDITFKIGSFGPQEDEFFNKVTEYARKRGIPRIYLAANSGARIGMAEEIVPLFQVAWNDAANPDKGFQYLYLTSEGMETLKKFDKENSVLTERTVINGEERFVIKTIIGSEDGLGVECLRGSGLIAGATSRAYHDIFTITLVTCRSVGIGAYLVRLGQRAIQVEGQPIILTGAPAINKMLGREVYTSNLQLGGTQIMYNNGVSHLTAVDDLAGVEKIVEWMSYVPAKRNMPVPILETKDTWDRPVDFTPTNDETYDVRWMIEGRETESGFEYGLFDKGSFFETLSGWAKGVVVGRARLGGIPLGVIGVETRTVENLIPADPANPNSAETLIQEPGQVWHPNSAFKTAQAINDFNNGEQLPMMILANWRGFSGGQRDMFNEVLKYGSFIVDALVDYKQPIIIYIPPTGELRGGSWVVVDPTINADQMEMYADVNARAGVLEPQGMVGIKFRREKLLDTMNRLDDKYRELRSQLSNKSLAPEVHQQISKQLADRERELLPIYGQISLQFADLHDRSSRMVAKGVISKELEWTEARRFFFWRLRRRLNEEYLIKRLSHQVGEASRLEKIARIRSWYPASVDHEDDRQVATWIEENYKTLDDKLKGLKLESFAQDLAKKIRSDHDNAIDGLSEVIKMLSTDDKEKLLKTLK
human (hACC2) ACC2, sequence (O00763 whole entry): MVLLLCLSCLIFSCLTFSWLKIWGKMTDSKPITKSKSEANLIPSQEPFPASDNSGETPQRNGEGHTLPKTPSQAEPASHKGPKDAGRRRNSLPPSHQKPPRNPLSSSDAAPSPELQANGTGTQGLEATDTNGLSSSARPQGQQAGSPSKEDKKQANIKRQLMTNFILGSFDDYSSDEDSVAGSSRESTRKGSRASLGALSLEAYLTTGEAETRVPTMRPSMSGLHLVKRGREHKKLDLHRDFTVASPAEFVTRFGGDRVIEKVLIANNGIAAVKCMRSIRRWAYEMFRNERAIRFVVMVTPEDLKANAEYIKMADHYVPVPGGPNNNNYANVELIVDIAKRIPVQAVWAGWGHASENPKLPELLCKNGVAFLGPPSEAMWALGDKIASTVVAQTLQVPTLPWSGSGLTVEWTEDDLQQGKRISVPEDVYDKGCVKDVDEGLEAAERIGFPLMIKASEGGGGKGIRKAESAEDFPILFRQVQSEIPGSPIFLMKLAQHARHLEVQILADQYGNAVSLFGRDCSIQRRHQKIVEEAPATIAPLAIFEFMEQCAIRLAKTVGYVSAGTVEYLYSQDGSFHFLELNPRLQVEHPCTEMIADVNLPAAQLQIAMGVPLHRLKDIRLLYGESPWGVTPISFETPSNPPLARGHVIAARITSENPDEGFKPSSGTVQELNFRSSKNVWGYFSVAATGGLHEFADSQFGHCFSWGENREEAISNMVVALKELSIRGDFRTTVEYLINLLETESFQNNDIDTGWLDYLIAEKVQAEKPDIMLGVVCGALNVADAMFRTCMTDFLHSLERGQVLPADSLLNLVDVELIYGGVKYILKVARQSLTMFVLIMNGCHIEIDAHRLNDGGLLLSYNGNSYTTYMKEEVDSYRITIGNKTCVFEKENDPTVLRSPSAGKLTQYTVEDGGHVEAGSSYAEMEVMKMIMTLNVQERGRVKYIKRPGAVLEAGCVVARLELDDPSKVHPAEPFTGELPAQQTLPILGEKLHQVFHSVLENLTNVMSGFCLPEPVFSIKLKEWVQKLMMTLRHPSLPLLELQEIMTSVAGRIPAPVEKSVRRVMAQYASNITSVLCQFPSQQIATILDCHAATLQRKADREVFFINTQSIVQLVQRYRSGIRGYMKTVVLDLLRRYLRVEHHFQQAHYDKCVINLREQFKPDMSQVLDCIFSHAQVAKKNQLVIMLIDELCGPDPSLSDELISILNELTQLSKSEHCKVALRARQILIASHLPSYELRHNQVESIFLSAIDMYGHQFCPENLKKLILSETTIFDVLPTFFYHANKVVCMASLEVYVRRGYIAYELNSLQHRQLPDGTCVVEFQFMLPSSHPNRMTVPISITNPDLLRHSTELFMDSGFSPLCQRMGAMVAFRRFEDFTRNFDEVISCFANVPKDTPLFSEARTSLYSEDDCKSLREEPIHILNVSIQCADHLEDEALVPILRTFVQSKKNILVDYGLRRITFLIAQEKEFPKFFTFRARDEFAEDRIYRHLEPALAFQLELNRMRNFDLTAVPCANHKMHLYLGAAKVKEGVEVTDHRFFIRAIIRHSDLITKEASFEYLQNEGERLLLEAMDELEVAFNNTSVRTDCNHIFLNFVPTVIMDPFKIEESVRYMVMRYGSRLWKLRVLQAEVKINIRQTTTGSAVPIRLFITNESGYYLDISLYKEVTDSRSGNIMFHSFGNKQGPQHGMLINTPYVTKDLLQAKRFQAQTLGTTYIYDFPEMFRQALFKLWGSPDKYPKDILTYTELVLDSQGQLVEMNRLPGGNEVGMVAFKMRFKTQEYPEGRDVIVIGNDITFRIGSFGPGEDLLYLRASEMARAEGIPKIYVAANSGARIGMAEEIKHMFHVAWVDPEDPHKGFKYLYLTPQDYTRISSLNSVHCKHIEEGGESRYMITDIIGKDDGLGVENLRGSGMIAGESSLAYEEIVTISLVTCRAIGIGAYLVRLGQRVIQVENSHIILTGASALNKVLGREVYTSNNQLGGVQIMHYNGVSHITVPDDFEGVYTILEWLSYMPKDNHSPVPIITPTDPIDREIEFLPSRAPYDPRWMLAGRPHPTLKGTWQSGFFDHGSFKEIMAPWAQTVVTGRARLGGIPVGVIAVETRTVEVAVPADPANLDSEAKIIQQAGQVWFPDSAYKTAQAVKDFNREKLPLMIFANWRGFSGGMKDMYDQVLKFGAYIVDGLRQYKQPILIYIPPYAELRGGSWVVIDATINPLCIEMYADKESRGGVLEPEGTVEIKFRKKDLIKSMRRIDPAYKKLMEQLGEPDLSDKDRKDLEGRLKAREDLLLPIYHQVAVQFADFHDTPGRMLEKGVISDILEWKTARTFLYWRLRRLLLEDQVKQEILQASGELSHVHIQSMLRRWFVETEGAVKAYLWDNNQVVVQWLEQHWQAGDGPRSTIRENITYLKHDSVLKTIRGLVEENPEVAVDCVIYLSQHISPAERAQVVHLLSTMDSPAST

SMILES | pIC50 (fungal (fACC2) ACC2) | MIC (C. albicans ATCC 90028; [2]) [µg/mL] | MIC [1, 3] [µg/mL] | MIC (C. krusei ATCC 6258; [4]) [µg/mL] | pIC50 (human (hACC2) ACC2) | MIC (C. albicans ATCC 90028; ATCC90028, 48 h) [µg/mL] | MIC ([1]; ATCC22019, 48 h) [µg/mL] | MIC (C. krusei ATCC 6258; ATCC6258, 48 h) [µg/mL]
COc1ccccc1[C@H](Cn1c(=O)n(C(C)(C)C(=O)O)c(=O)c2c(C)c(-n3cccn3)sc21)O[C@H]1CC[C@@H](O)CC1 [Compound I-72] | 8.52 to 9.22 | > 4.1 | > 4.1 | > 4.1 | 8.00 to 8.52 |  |  | 
COCCO[C@@H](Cn1c(=O)n([C@@H](C)C(=O)NC(C)C)c(=O)c2c(C)c(-n3cccn3)sc21)c1cc(F)ccc1OC [Compound I-73, (S)-2-(1-((R)-2-(5-fluoro-2-methoxyphenyl)-2-(2-methoxy-ethoxy)ethyl)-5-methyl-2,4-dioxo-6-(1H-pyrazol-1-yl)-1,4-dihydrothieno[2,3-d]pyrimidin-3(2H)-yl)-N-isopropylpropanamide] | 8.52 to 9.22 | 2.1 to 4 (≈ 3.57 to 6.81 µM) | 2.1 to 4 (≈ 3.57 to 6.81 µM) | > 4.1 | 8.00 to 8.52 |  |  | 
COCCO[C@@H](Cn1c(=O)n([C@H](C)C(=O)NC(C)C)c(=O)c2c(C)c(-n3cccn3)sc21)c1cc(F)ccc1OC [Compound I-74, (R)-2-(1-((R)-2-(5-fluoro-2-methoxyphenyl)-2-(2-methoxy-ethoxy)ethyl)-5-methyl-2,4-dioxo-6-(1H-pyrazol-1-yl)-1,4-dihydrothieno[2,3-d]pyrimidin-3(2H)-yl)-N-isopropylpropanamide] | 7.40 to 8.00 | > 4.1 | > 4.1 | > 4.1 | < 7.40 |  |  | 
COc1ccccc1[C@H](Cn1c(=O)n(C(C)(C)C(=O)NC(C)C)c(=O)c2c(C)c(-n3cccn3)sc21)OCCC#N [Compound I-80, (R)-2-(1-(2-(2-cyanoethoxy)-2-(2-methoxyphenyl)ethyl)-5-methyl-2,4-dioxo-6-(1H-pyrazol-1-yl)-1,4-dihydrothieno[2,3-d]pyrimidin-3(2H)-yl)-N-isopropyl-2-methylpropanamide] | 8.00 to 8.52 |  |  |  | 7.40 to 8.00 | > 4.1 | > 4.1 | > 4.1
COc1ccccc1[C@H](Cn1c(=O)n(C(C)(C)C(N)=O)c(=O)c2c(C)c(-n3cccn3)sc21)OCCC#N [Compound I-83] | 8.00 to 8.52 | > 4.1 | > 4.1 | > 4.1 | 7.40 to 8.00 |  |  | 
COc1ccccc1[C@H](Cn1c(=O)n(C(C)(C)C(=O)N2CCCC2)c(=O)c2c(C)c(-n3cccn3)sc21)OCCC#N [Compound I-84, (R)-3-(I-(2-methoxyphenyl)-2-(5-methyl-3-(2-methyl-1-oxo-1-(pyrrolidin-1-yl)propan-2-yl)-2,4-dioxo-6-(1H-pyrazol-1-yl)-3,4-dihydrothieno[2,3-d]pyrimidin-1(2H)-yl)ethoxy)propanenitrile] | 8.52 to 9.22 | > 4.1 | > 4.1 | > 4.1 | 7.40 to 8.00 |  |  | 
